Laboratory results taken from US20180098997A1, “PHARMACEUTICAL DOSES FOR A BROMODOMAIN AND EXTRATERMINAL PROTEIN (BET) INHIBITOR” (Oncoethix GmbH, priority 2015, published 2018).
Where two headings read alike, the source gives them in different places.

Assays:
[1] = Phase I dose escalation population pharmacokinetics in patients with hematologic malignancies (plasma UPLC-MS/MS, Monolix PPK model); type: in vivo, human; settings: for CL [mean +/- SD] / V [mean +/- SD]: apparent (F set to 1); for Cmin [mean +/- SD]: predose at Day 8; for AUC(0-t): read-out: AUC0-24 hr [mean +/- SD]; for Cmax: read-out: Cmax [mean +/- SD]
Description: Solid dispersions were prepared using the compound of Formula (1) and hydroxylpropylmethylcellulose acetate succinate (HPMCAS) at both 25% and 50% of compound loading. Solid dispersions were prepared by a solvent evaporation method, using spray-drying followed by secondary drying in a low-temperature convection oven. Dispersions containing 10 mg, 20 mg, 40 mg, 80 mg, 120 mg and 160 mg, of the compound, were prepared into capsules and administered to patients Pharmacokinetics (PK) of the compound of Formula (1) as single agent were characterized in patients with hematologic malignancies, including a population pharmacokinetic modeling. A multicenter, dose escalation study in cohorts of 3 to 6 patients with acute leukemia or other hematologic malignancies was performed with a dose escalation step followed by expansion cohorts at the recommended dose. Patients received oral compound of Formula (1) from 10 to 160 mg according to different schedules. Schedules included once a day dosing with 21-day cycles, acute leukemia (AL); 14 days on/7 days off, hematologic malignancies (OHM). Continuous PK blood samples from 7 time points over 24 hours post-administration were collected on day 1 of cycle 1 for the first 3 patients per DL, and 5 time points over 8 hours post-administration for other patients at this DL. Residual sampling before administration on days 8, 15 and 22 was performed in all patients. Compound plasma concentrations were measured using validated ultra-performance liquid chromatography with tandem mass spectrometry detection with a concentration range 1-250 ng/mL, with a small plasma volume for analysis (50 μL). Analyses and population PK (PPK) modeling were performed with the nonlinear mixed effect modeling software program Monolix version 4.3. The following parameters were calculated: absorption constant (Ka); apparent distribution volume (V/F); apparent clearance (CL/F) and lean body mass (LBM; calculated considering patient sex, weight and height). Parameters were estimated by computing the maximum likelihood estimator without linearization using the stochastic approximation expectation maximization (SAEM) algorithm combined with a Markov Chain Monte Carlo (MCMC) procedure. The number of MCMC chains was fixed at 10 for all estimations. A constant error model was used to describe residual and Between-Subject Variability (BSV, η) were ascribed to an exponential model. In the absence of intravenous data, the initial bioavailability (F) was set to 1, meaning that clearance (CL) and volume of distribution (V) should be interpreted as the apparent clearance (CL/F) and apparent volume of distribution (V/F), respectively. Eighty-five patients enrolled and treated and randomized to six dose levels (10, 20, 40, 80, 120 and 160 mg) once-a-day and 40 mg twice-a-day. Among them, 81 patients with 630 plasma concentrations (607+23 BLQ) were evaluable for PK assessment. A 1-compartment open model adequately described the total compound concentration-time curve. […] The absorption phase was linear and Tmax was between 1 and 4 h. […] In the PPK study, the best descriptive model was obtained when LBM was considered in the analysis. A correlation between CL/F and V/F was also observed for compound. A total of 81 patients (52 male, 29 female) were evaluable for PK (40 AL patients, 41 OHM patients), with a total of […] available for analysis.

[2] = Dose limiting toxicity in patients with acute leukemia or hematologic malignancies; type: in vivo, human
From the text: Dose-limiting toxicity corresponds to side-effect toxicity such that the side-effects are severe enough to impose restrictions on, or to prevent administration of, the dose. Clinically significant toxicity includes but is not limited to intolerable levels in a patient of thrombocytopenia, neutropenia, fatigue, diarrhea, anemia, mucositis, and other side effects known to be associated with elevated levels of bromodomain and extraterminal protein inhibitors.
(§1) Doses of the compound of Formula (1) were administered to patients having leukemia, hematologic malignancies, diffuse large B-cell lymphoma, other lymphomas or multiple myeloma, and dose limiting toxicity and objective responses were observed.
Compound of Formula (1) dose-limiting toxicity was evaluated in patients with acute leukemia and hematologic malignancies.

[3] = test system: leukemia, diffuse large B-cell lymphoma, other lymphomas or multiple myeloma; experiment: Objective responses in patients; type: in vivo, human; settings: patients receiving 10 or 20 mg per day
From the text: With regard to the compound of Formula (1), an effective dose is a dose that inhibits a protein in the bromodomain and extraterminal protein family to a sufficient degree that a desired objective response is observed. An objective response may be a complete response (all detectable tumor or blast cell has disappeared), a partial response (roughly corresponds to at least a 50% decrease in the total tumor volume or blast cell amount but with evidence of some residual disease still remaining), or a minor response (roughly means a small amount of tumor shrinkage or blast cell reduction). Thus, an objective response can include a response where blast cell amount reduction is observed, or where tumor shrinkage is observed in the patient.
as §1
Compound of Formula (1) once-a-day doses of 10, 20, 40, 80, 120 and 160 mg and twice-a-day doses of 40 mg were administered to patients with leukemia, diffuse large B-cell lymphoma, other lymphomas or multiple myeloma. In this study, objective responses were not observed in patients receiving 10 or 20 mg per day.

[4] = test system: BET (bromodomains and extraterminal) proteins, which include BRD2, BRD3, and BRD4; settings: U.S. 2010/0286127 A1; cited from earlier work
[5] = 10 mg QD oral, n = 8, derived from EBE
[6] = 20 mg QD oral, n = 6, derived from EBE
[7] = 40 mg BID oral, n = 13, derived from EBE
[8] = 40 mg QD oral, n = 8, derived from EBE
[9] = 80 mg QD oral, n = 11, derived from EBE
[10] = 120 mg QD oral, n = 30, derived from EBE
[11] = 160 mg QD oral, n = 5, derived from EBE
[12] = PPK structural model, 1-compartment open model, 81 patients, all dose levels

Cc1sc2c(c1C)C(c1ccc(Cl)cc1)=N[C@@H](CC(=O)Nc1ccc(O)cc1)c1nnc(C)n1-2 [Compound of Formula (1), (S)-2-(4-(4-chlorophenyl)-2,3,9-trimethyl-6H-thieno[3,2-f][1,2,4]triazolo[4,3-a][1,4]diazepin-6-yl)-N-(4-hydroxyphenyl)acetamide]
CL [mean +/- SD] [1, 5]: 8.53 L/h
V [mean +/- SD] [1, 5]: 72.1 L
Cmin [mean +/- SD] ([1]; 10 mg QD oral, n = 8, observed values): 22.5 ng/mL
CL [mean +/- SD] [1, 6]: 7.06 L/h
V [mean +/- SD] [1, 6]: 57.6 L
Cmin [mean +/- SD] ([1]; 20 mg QD oral, n = 6, observed values): 50.5 ng/mL
CL [mean +/- SD] [1, 7]: 6.57 L/h
V [mean +/- SD] [1, 7]: 57.46 L
Cmin [mean +/- SD] ([1]; 40 mg BID oral, n = 13, observed values): 351.16 ng/mL
CL [mean +/- SD] [1, 8]: 7.66 L/h
V [mean +/- SD] [1, 8]: 58.65 L
Cmin [mean +/- SD] ([1]; 40 mg QD oral, n = 8, observed values): 47.7 ng/mL
CL [mean +/- SD] [1, 9]: 7.83 L/h
V [mean +/- SD] [1, 9]: 71.14 L
Cmin [mean +/- SD] ([1]; 80 mg QD oral, n = 11, observed values): 113.7 ng/mL
CL [mean +/- SD] [1, 10]: 7.81 L/h
V [mean +/- SD] [1, 10]: 63.32 L
Cmin [mean +/- SD] ([1]; 120 mg QD oral, n = 30, observed values): 325.4 ng/mL
CL [mean +/- SD] [1, 11]: 12.10 L/h
V [mean +/- SD] [1, 11]: 96.66 L
Cmin [mean +/- SD] ([1]; 160 mg QD oral, n = 5, observed values): 215.0 ng/mL
absorption constant (Ka) [1, 12]: 0.74 h⁻¹
apparent clearance (CL/F) [1, 12]: 8.45 L/h
apparent distribution volume (V/F) [1, 12]: 71.7 L
half-life ([1]; both sexes, human, plasma, oral, all patients, read-out: Mean elimination half-life (converted)): 5.8 h
AUC(0-t) ([1]; both sexes, human, plasma, po, 10 mg, 10 mg QD oral, n = 8, derived from EBE): 1190 ng·h/mL
AUC(0-t) ([1]; both sexes, human, plasma, po, 20 mg, 20 mg QD oral, n = 6, derived from EBE): 2930 ng·h/mL
AUC(0-t) ([1]; both sexes, human, plasma, po, 40 mg, 40 mg BID oral, n = 13, values doubled to mimic 80 mg (2 × 40 mg)): 13100 ng·h/mL
AUC(0-t) ([1]; both sexes, human, plasma, po, 40 mg, 40 mg QD oral, n = 8, derived from EBE): 5500 ng·h/mL
AUC(0-t) ([1]; both sexes, human, plasma, po, 80 mg, 80 mg QD oral, n = 11, derived from EBE): 12500 ng·h/mL
AUC(0-t) ([1]; both sexes, human, plasma, po, 120 mg, 120 mg QD oral, n = 30, derived from EBE): 17200 ng·h/mL
AUC(0-t) ([1]; both sexes, human, plasma, po, 160 mg, 160 mg QD oral, n = 5, derived from EBE): 13900 ng·h/mL
Cmax ([1]; both sexes, human, plasma, 40 mg BID oral, n = 13, derived from EBE): 550 ng/mL
Cmax ([1]; both sexes, human, plasma, 80 mg QD oral, n = 11, derived from EBE): 1150 ng/mL
Cmax ([1]; both sexes, human, plasma, 120 mg QD oral, n = 30, derived from EBE): 1470 ng/mL
Cmax ([1]; both sexes, human, plasma, 160 mg QD oral, n = 5, derived from EBE): 1290 ng/mL
Tmax ([1]; both sexes, human, plasma, oral, all dose levels): 1 to 4 h
half-life ([1]; human, plasma, po, 10 mg, 10 mg QD oral, n = 8, derived from EBE, read-out: T1/2 [mean +/- SD] (converted)): 5.84 h
half-life ([1]; human, plasma, po, 20 mg, 20 mg QD oral, n = 6, derived from EBE, read-out: T1/2 [mean +/- SD] (converted)): 5.63 h
half-life ([1]; human, plasma, po, 40 mg, 40 mg BID oral, n = 13, derived from EBE, read-out: T1/2 [mean +/- SD] (converted)): 6.22 h
half-life ([1]; human, plasma, po, 40 mg, 40 mg QD oral, n = 8, derived from EBE, read-out: T1/2 [mean +/- SD] (converted)): 5.33 h
half-life ([1]; human, plasma, po, 80 mg, 80 mg QD oral, n = 11, derived from EBE, read-out: T1/2 [mean +/- SD] (converted)): 5.51 h
half-life ([1]; human, plasma, po, 120 mg, 120 mg QD oral, n = 30, derived from EBE, read-out: T1/2 [mean +/- SD] (converted)): 5.91 h
half-life ([1]; human, plasma, po, 160 mg, 160 mg QD oral, n = 5, derived from EBE, read-out: T1/2 [mean +/- SD] (converted)): 5.48 h
Cmax ([1]; human, plasma, 10 mg QD oral, n = 8, derived from EBE): 131 ng/mL
Cmax ([1]; human, plasma, 20 mg QD oral, n = 6, derived from EBE): 275 ng/mL
Cmax ([1]; human, plasma, 40 mg QD oral, n = 8, derived from EBE): 627 ng/mL
Dose Limiting Toxicity, observed toxicity ([2]; Acute Leukemia, 20 mg QD, 6 patients): 0 patients
Dose Limiting Toxicity, observed toxicity ([2]; Acute Leukemia, 40 mg BID, 6 patients): 0 patients
Dose Limiting Toxicity, observed toxicity ([2]; Acute Leukemia, 40 mg QD, 4 patients): 0 patients
Dose Limiting Toxicity, observed toxicity ([2]; Acute Leukemia, 80 mg QD, 4 patients): 0 patients
Dose Limiting Toxicity, observed toxicity ([2]; Acute Leukemia, 120 mg QD, 11 patients): 0 patients
Dose Limiting Toxicity, observed toxicity ([2]; Acute Leukemia, 160 mg QD, 5 patients (diarrhea and fatigue/anorexia)): 2 patients
Dose Limiting Toxicity, observed toxicity ([2]; Older Adult Hematologic Malignancies, 20 mg QD, 6 patients): 0 patients
Dose Limiting Toxicity, observed toxicity ([2]; Older Adult Hematologic Malignancies, 40 mg BID, 6 patients (thrombocytopenia)): 5 patients
Dose Limiting Toxicity, observed toxicity ([2]; Older Adult Hematologic Malignancies, 40 mg QD, 3 patients): 0 patients
Dose Limiting Toxicity, observed toxicity ([2]; Older Adult Hematologic Malignancies, 80 mg QD, 7 patients (thrombocytopenia)): 2 patients
Dose Limiting Toxicity, observed toxicity ([2]; Older Adult Hematologic Malignancies, 120 mg QD, 18 patients (thrombocytopenia, hypo Na, neutropenia, fatigue, diarrhea, mucositis)): 10 patients
objective responses [3]: not observed
inhibition of binding of acetylated histone H4 to BET proteins [4]: inhibit the binding
